Measured values as given in publication PMC11913368, “Antilipase activities of cultivated peppermint and rosemary essential oils: in vitro and in silico studies” (Turkish Journal of Biology, 2025).
In brackets after ≈: the same amount, converted by molar mass.

System: T1, Candida rugosa lipase (CRL)
T1 construct: gene LIP1
Assay: p-nitrophenyl laurate hydrolysis, absorbance at […] nm
Type: biochemical, Diutina rugosa
Details: substrate p-NPL, pH 7, 37 °C, 15 min preincubation with enzyme; reference compound

| Compound | IC50 value |
| --- | --- |
| CCCCCCCCCCC[C@@H](C[C@@H]1OC(=O)[C@H]1CCCCCC)OC(=O)[C@H](CC(C)C)NC=O [Orlistat] | 60 ± 0 mg/L (≈ 121 µM) |
| O=c1c(O)c(-c2ccc(O)c(O)c2)oc2cc(O)cc(O)c12 [Quercetin] | 320 ± 4 mg/L (≈ 1060 µM) |
